The target in series [1] is Protein polybromo-1 (Homo sapiens) (UniProt Q86U86). The series is described as follows: Binding affinity to human PBRM1 bromodomain 2 expressed in bacterial system assessed as remaining binding level at 1 uM by BROMOscan assay relative to control.
The nature of series [2]: AUC in mouse at 10 mg/kg, po. The note with it: in vivo. Format: ADME, organism-based.
A short description of series [3]: Oral bioavailability in mouse at 10 mg/kg. The series is classed as ADME, organism-based. The note with it: in vivo.
The test system of series [4] is OPM-2. The experiment in a line: Antitumor activity against human OPM2 cells xenografted in SCID-beige mouse assessed as inhibition of tumor growth administered once daily orally for 28 days starting from 18 days post tumor inoculation. The series is classed as functional, cell-based. In general terms: In xenograft studies the graft and the host belong to different species.

The test system of series [5] is OPM-2. The experiment in a line: Antitumor activity against human OPM2 cells xenografted in SCID-beige mouse assessed as inhibition of tumor growth at 3.75 mg/kg, po qd administered for 28 days starting from 18 days post tumor inoculation. The following applies: OPM-2, po, read-out: TGI. Format: functional.
The subject of series [6] is Mus musculus. The experiment in a line: Toxicity in human OPM2 cells xenografted SCID-beige mouse assessed as body weight loss at 3.75 mg/kg, po qd administered for 28 days starting from 18 days post tumor inoculation. The series is classed as organism-based. The following applies: in vivo.
The subject of series [7] is Mus musculus. The experiment in a line: Toxicity in human OPM2 cells xenografted SCID-beige mouse assessed as body weight loss at 7.5 mg/kg, po qd administered for 28 days starting from 18 days post tumor inoculation. The following applies: in vivo. The series is classed as organism-based.
Series [8] addresses T1, Bromodomain-containing protein 7 (Homo sapiens) (UniProt Q9NPI1).
T1 sequence (whole entry): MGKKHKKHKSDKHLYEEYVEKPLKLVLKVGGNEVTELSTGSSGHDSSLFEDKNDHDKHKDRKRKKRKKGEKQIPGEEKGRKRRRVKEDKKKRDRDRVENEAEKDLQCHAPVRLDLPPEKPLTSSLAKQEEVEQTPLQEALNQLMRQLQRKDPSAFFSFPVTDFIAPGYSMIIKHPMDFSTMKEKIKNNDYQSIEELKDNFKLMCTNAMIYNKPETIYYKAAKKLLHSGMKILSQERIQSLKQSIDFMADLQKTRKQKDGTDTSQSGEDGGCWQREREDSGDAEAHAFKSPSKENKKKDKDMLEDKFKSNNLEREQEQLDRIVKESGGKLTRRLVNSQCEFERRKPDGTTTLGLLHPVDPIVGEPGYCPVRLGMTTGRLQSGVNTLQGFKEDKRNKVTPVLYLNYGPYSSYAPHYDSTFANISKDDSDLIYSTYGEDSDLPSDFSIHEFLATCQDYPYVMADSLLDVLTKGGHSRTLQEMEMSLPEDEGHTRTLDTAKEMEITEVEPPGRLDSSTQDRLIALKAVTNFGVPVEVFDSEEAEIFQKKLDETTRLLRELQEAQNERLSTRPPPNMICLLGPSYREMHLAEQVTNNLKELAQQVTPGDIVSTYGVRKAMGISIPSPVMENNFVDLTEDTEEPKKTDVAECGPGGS
The series is described as follows: Binding affinity to human BRD7 expressed in mammalian system assessed as remaining binding level at 1 uM by BROMOscan assay relative to control.

Series [9] deals with T2, Bromodomain and PHD finger-containing protein 3 (Homo sapiens) (UniProt Q9ULD4).
T2 sequence (whole entry): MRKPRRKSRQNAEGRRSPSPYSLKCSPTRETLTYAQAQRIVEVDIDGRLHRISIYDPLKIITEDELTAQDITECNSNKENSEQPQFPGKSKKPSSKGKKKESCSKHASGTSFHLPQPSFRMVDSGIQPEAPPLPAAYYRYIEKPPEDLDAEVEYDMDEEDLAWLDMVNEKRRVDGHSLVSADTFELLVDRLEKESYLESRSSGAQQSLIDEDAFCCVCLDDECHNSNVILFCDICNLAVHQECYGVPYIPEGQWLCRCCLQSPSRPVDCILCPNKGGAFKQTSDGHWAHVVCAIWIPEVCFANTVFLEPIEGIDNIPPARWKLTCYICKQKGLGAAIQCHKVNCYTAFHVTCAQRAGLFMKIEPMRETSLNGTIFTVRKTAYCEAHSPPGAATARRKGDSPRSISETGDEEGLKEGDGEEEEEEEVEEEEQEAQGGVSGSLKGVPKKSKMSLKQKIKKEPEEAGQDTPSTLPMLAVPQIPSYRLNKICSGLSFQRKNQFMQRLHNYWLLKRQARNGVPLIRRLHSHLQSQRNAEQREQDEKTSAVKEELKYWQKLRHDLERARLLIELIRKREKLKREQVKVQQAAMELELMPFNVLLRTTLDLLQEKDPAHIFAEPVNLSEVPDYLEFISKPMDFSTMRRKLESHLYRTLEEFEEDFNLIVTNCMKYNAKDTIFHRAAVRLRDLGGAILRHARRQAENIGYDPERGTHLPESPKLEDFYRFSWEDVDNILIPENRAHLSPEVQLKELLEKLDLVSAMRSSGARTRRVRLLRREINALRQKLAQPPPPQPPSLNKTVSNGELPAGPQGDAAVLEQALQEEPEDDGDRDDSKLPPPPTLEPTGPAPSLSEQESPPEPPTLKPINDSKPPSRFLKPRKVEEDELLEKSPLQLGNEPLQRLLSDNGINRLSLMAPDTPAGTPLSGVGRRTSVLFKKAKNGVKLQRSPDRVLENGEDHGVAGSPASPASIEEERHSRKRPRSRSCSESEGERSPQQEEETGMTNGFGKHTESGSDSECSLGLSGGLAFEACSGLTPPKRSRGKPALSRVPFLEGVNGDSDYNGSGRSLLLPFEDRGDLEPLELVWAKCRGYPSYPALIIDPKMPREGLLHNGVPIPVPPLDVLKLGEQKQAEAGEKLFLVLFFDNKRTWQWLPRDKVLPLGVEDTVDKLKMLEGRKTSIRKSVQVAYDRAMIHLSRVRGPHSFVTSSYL
The series is described as follows: Binding affinity to human BRPF3 expressed in bacterial system assessed as remaining binding level at 1 uM by BROMOscan assay relative to control.

The target of series [10] is SWI/SNF-related matrix-associated actin-dependent regulator of chromatin subfamily A member 4 (Homo sapiens) (UniProt P51532). The series is described as follows: Binding affinity to human SMARCA4 expressed in bacterial system assessed as remaining binding level at 1 uM by BROMOscan assay relative to control.
In series [11] the test system is Mus musculus. The experiment in a line: Dose normalized AUC in mouse at 1 mg/kg, po. The series is classed as ADME, organism-based. The following applies: in vivo.
Series [12] concerns OPM-2. The experiment in a line: Antitumor activity against human OPM2 cells xenografted in SCID-beige mouse assessed as inhibition of tumor growth at 0.31 mg/kg, po qd administered for 28 days starting from 18 days post tumor inoculation. Format: functional. The note with it: OPM-2, po, read-out: TGI.
Series [13] concerns OPM-2. The experiment in a line: Antitumor activity against human OPM2 cells xenografted in SCID-beige mouse assessed as inhibition of tumor growth at 0.62 mg/kg, po qd administered for 28 days starting from 18 days post tumor inoculation. Format: functional. The note with it: OPM-2, po, read-out: TGI.
Series [14] has as its system Mus musculus. The series is described as follows: Toxicity in human OPM2 cells xenografted SCID-beige mouse assessed as body weight loss at 0.31 mg/kg, po qd administered for 28 days starting from 18 days post tumor inoculation. Format: organism-based. The following applies: in vivo.
In series [15] the test system is Mus musculus. The series is described as follows: Toxicity in human OPM2 cells xenografted SCID-beige mouse assessed as body weight loss at 0.62 mg/kg, po qd administered for 28 days starting from 18 days post tumor inoculation. Format: organism-based. The note with it: in vivo.
In series [16] the test system is Mus musculus. The series is described as follows: Toxicity in human OPM2 cells xenografted SCID-beige mouse assessed as morbidity at 0.31 mg/kg, po qd administered for 28 days starting from 18 days post tumor inoculation. The following applies: in vivo. The series is classed as organism-based.

SWI/SNF-related matrix-associated actin-dependent regulator of chromatin subfamily A member 4 (Homo sapiens), sequence (P51532 whole entry): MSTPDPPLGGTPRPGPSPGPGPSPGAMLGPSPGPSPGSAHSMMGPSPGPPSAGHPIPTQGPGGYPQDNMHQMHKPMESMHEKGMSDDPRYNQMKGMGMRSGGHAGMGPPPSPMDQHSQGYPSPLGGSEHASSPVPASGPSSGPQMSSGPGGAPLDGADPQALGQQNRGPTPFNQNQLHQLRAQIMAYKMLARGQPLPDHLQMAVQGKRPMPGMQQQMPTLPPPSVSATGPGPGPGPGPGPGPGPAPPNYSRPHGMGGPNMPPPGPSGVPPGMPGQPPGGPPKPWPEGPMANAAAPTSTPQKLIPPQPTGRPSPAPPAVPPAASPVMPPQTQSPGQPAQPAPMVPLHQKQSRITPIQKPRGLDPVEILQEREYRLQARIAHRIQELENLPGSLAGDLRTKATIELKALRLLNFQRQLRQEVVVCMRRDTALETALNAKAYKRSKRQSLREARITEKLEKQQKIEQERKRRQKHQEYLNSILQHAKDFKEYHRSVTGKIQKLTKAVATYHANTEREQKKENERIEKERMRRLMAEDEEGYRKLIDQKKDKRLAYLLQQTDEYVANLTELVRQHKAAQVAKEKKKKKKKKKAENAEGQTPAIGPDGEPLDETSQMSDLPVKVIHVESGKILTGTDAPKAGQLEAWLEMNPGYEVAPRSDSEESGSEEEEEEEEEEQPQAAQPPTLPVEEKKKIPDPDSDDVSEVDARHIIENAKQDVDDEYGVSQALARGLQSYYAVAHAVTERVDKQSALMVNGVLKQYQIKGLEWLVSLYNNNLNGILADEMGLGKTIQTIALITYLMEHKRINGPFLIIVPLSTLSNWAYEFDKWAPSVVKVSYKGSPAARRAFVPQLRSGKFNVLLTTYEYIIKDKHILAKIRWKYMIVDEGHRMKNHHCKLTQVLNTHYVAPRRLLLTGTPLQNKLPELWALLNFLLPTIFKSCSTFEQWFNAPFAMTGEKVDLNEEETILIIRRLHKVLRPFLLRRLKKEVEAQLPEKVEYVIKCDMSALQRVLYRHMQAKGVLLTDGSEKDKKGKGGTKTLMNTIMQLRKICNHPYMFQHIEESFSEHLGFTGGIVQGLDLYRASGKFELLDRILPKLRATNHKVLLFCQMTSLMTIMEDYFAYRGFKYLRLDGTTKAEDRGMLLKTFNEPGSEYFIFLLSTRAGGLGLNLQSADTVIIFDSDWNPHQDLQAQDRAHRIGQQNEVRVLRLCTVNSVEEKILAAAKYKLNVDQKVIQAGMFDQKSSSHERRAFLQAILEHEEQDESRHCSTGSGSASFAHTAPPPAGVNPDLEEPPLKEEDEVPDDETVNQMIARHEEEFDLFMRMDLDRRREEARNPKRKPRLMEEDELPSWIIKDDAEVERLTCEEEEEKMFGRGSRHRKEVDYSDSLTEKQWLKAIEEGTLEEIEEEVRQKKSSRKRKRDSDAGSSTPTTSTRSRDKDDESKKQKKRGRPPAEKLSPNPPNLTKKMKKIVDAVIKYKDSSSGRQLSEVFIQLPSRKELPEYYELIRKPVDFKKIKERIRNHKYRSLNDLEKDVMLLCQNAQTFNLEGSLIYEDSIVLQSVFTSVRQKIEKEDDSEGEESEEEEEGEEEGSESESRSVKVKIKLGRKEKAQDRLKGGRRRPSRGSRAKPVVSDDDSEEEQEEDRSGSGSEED
Protein polybromo-1 (Homo sapiens), sequence (Q86U86 whole entry): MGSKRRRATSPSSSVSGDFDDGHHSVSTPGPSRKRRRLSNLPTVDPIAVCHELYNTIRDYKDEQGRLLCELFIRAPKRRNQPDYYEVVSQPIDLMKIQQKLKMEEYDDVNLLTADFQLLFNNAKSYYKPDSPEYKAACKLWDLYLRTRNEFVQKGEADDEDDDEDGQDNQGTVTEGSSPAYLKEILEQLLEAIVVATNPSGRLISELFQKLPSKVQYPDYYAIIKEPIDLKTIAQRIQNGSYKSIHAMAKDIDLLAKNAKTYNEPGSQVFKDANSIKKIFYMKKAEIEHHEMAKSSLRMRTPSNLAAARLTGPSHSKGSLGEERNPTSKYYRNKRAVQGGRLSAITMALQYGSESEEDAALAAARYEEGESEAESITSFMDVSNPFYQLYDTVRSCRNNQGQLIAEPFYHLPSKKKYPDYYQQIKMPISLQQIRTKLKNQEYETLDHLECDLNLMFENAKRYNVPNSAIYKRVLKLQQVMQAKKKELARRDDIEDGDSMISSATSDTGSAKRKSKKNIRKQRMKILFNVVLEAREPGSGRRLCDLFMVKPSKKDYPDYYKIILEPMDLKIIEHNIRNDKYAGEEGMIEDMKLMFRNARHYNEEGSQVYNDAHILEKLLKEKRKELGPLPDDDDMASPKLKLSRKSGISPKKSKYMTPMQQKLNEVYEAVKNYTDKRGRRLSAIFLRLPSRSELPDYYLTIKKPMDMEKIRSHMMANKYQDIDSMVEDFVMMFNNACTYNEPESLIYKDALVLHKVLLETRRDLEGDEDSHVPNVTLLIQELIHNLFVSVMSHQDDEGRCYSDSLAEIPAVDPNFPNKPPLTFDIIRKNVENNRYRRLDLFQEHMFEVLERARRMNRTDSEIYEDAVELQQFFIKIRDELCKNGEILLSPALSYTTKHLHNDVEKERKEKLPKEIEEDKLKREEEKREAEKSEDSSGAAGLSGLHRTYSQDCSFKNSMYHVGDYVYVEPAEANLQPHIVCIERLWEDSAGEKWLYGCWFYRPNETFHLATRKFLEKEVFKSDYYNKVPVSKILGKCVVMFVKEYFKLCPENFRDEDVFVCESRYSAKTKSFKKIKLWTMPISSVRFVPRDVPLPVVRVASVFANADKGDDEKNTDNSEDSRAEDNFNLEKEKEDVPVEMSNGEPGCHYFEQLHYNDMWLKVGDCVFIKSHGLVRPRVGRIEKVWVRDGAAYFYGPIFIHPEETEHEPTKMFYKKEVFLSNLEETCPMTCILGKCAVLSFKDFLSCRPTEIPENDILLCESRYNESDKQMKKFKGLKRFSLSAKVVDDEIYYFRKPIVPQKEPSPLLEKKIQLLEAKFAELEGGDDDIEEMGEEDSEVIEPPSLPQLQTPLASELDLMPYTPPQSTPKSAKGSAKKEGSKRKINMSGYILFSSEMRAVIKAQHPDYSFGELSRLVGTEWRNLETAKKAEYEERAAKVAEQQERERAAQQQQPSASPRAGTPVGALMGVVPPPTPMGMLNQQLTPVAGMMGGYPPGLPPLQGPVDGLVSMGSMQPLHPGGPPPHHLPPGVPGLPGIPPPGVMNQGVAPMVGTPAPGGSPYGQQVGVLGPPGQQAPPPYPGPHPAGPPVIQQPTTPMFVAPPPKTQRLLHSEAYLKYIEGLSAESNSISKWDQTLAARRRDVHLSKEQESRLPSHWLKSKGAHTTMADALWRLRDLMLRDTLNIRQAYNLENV

As usually defined, the AUC is the area under the concentration-time curve, a measure of exposure. As usually defined, the bioavailability is dose-corrected exposure relative to a reference, in per cent. Turning to `Cn1cc2c3c(c[nH]c(=O)c31)-c1cc(CS(C)(=O)=O)ccc1N(c1ccc(F)cc1)C2`, the Activity in series [1] came to 92%; in series [6] it was 10%; in [7], 9%; in series [8], 100%; in series [9] it was 100%; in series [10], 86%. This compound showed an AUC in series [2] of 2.8 µM·h. Further, in series [3], the bioavailability was found to be 34%. Also, in [4], the TGI entry is “Dose-dependent effect”. For the same compound, the inhibition in vivo at 3.75 mg/kg in series [5] was 68%.

For `Cn1cc2c3c(c[nH]c3c1=O)CN(c1ccc(F)cc1F)c1ccc(CS(C)(=O)=O)cc1-2`, the Activity in series [1] was determined as 79%; in series [8] it was 92%; in series [9], 88%; in series [10], 90%. Also, in [2], the area under the curve (AUC) worked out at 12 µM·h. The compound also gave a bioavailability in [3] of 93%.

As for `Cn1cc2c3c(c[nH]c3c1=O)CN(c1ccccn1)c1ccc(CS(C)(=O)=O)cc1-2`, the Activity in series [1] was 81%; in [14], 0%; in series [15] it was 5%; in series [16] it was “Non-Toxic”; in series [8], 96%; in series [9], 94%. Further, in series [10], the Activity was 56%. In [11], this compound showed an AUC/dose of 3.5 µM·h. Moreover, the bioavailability in [3] came out at 32%. In addition, the TGI entry in series [4] was “Dose-dependent effect”. For the same compound, the inhibition in vivo at 0.31 mg/kg in [12] was determined as 60%. In addition, the inhibition in vivo at 0.62 mg/kg in [13] came out at 94%.

The values are drawn from ChEMBL document CHEMBL4190379 (Bioorg Med Chem Lett, 2018).
